US20230085307A1, “PYRIDAZINONE COMPOUND AND HERBICIDE” (NISSAN CHEMICAL CORPORATION, priority 2019, published 2023)

Tests used:
barnyard grass = test: Test Example 3: herbicidal effect by foliage application, Wagner pot (Table 18, symbol H); assay type: in vivo, barnyard grass (Echinochloa crus-galli); details: for herbicidal effect on H (barnyard grass), rating 0-5: 320 g/ha
Summary of the method: (§1)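 Plants were sown in alluvial soil held under 0.1–0.5 cm standing water and grown 14 days in a greenhouse at 25–30 °C. An emulsifiable formulation, water-diluted to the set dose, was then sprayed onto the foliage, and effects were scored three weeks later using previously defined criteria.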

Japanese bulrush [1] = test: Test Example 1: herbicidal activity, application before weed generation under submerged conditions (Table 16, symbol B); assay type: in vivo, Japanese bulrush (Schoenoplectus juncoides); details: for Herbicidal effect on B: Japanese bulrush (grade 0-5): 320 g/ha applied herbicide
Summary of the method: (§2)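 Submerged Wagner pots (alluvial soil, 4 cm water) sown with weed seeds and planted with 2.5-leaf rice seedlings; emulsifiable concentrate diluted in water applied to water surface on sowing day. Held in greenhouse at 25-30 °C; injury scored 0-5 by herbicidal rate after three weeks.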

late watergrass [2] = test: Test Example 2: herbicidal activity, application during weed generation under submerged conditions (Table 17, symbol A); assay type: in vivo, late watergrass (Echinochloa oryzicola); details: for herbicidal effect rating, A: late watergrass: AAH 320 g/ha, application during weed generation, submerged conditions; for herbicidal effect grade, A: late watergrass: application during weed generation under submerged conditions
Summary of the method: (§3)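 Steps: fill Wagner pots with alluvial soil; add water to give 4 cm depth; sow the species mixed; grow under glass at 25–30° C.; at 1–2 leaves apply water-diluted emulsion formulation to the water surface at a fixed herbicide amount; score after 3 weeks.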

Japanese bulrush [3] = test: Test Example 2: herbicidal activity, application during weed generation under submerged conditions (Table 17, symbol B); assay type: in vivo, Japanese bulrush (Schoenoplectus juncoides); details: for herbicidal effect rating, B: Japanese bulrush: AAH 320 g/ha, application during weed generation, submerged conditions; for herbicidal effect grade, B: Japanese bulrush: application during weed generation under submerged conditions
Summary of the method: as §3

oval-leafed pondweed [4] = test: Test Example 1: herbicidal activity, application before weed generation under submerged conditions (Table 16, symbol C); assay type: in vivo, oval-leafed pondweed (Monochoria vaginalis); details: for Herbicidal effect on C: oval-leafed pondweed (grade 0-5): 320 g/ha applied herbicide
Summary of the method: as §2

Chinese sprangletop = test: Test Example 3: herbicidal effect by foliage application, Wagner pot (Table 18, symbol D); assay type: in vivo, chinese sprangletop (Leptochloa chinensis); details: for herbicidal effect on D (Chinese sprangletop), rating 0-5: 320 g/ha
Summary of the method: as §1

rice flat sedge = test: Test Example 3: herbicidal effect by foliage application, Wagner pot (Table 18, symbol E); assay type: in vivo, rice flat sedge (Cyperus iria); details: for herbicidal effect on E (rice flat sedge), rating 0-5: 320 g/ha
Summary of the method: as §1

oval-leafed pondweed [5] = test: Test Example 2: herbicidal activity, application during weed generation under submerged conditions (Table 17, symbol C); assay type: in vivo, oval-leafed pondweed (Monochoria vaginalis); details: for herbicidal effect rating, C: oval-leafed pondweed: AAH 320 g/ha, application during weed generation, submerged conditions; for herbicidal effect grade, C: oval-leafed pondweed: application during weed generation under submerged conditions
Summary of the method: as §3

late watergrass [6] = test: Test Example 1: herbicidal activity, application before weed generation under submerged conditions (Table 16, symbol A); assay type: in vivo, late watergrass (Echinochloa oryzicola); details: for Herbicidal effect on A: late watergrass (grade 0-5): 320 g/ha applied herbicide
Summary of the method: as §2

[7] = amount of applied herbicide 320 g/ha
[8] = amount of applied herbicide 438 g/ha

Row | SMILES | Herbicidal effect on B: Japanese bulrush (grade 0-5) (Japanese bulrush [1]) | herbicidal effect rating, A: late watergrass (late watergrass [2]) | herbicidal effect rating, B: Japanese bulrush (Japanese bulrush [3]) | Herbicidal effect on C: oval-leafed pondweed (grade 0-5) (oval-leafed pondweed [4]) | herbicidal effect rating, C: oval-leafed pondweed (oval-leafed pondweed [5]) | Herbicidal effect on A: late watergrass (grade 0-5) (late watergrass [6]) | herbicidal effect on H: barnyard grass (barnyard grass; [7]) | herbicidal effect on D: Chinese sprangletop (Chinese sprangletop; [7]) | herbicidal effect on E: rice flat sedge (rice flat sedge; [7]) | other results
1 | C=CCCOc1ccc(-c2sc3ccccc3c2-c2c(O)c(C)nn(C)c2=O)cc1 [1-207] | 5 (Herbicidal rate of 90% or more (almost completely withered)) | 5 (Herbicidal rate of 90% or more (almost completely withered)) | 4 (Herbicidal rate of 70% or more and less than 90%) | 5 (Herbicidal rate of 90% or more (almost completely withered)) | 5 (Herbicidal rate of 90% or more (almost completely withered)) | 5 (Herbicidal rate of 90% or more (almost completely withered)) |  |  |  | herbicidal effect on H (barnyard grass), rating 0-5 (barnyard grass): 5 (Herbicidal rate of 90% or more (almost completely withered)); herbicidal effect on D (Chinese sprangletop), rating 0-5 (Chinese sprangletop): 5 (Herbicidal rate of 90% or more (almost completely withered)); herbicidal effect on E (rice flat sedge), rating 0-5 (rice flat sedge): 4 (Herbicidal rate of 70% or more and less than 90%)
2 | Cc1nn(C)c(=O)c(-c2c(-c3ccc(OCCOCCCl)cc3)sc3ccccc23)c1O [1-227] | 5 (Herbicidal rate of 90% or more (almost completely withered)) | 4 (Herbicidal rate of 70% or more and less than 90%) | 3 (Herbicidal rate of 40% or more and less than 70%) | 5 (Herbicidal rate of 90% or more (almost completely withered)) | 3 (Herbicidal rate of 40% or more and less than 70%) | 5 (Herbicidal rate of 90% or more (almost completely withered)) |  |  |  | herbicidal effect on H (barnyard grass), rating 0-5 (barnyard grass): 5 (Herbicidal rate of 90% or more (almost completely withered)); herbicidal effect on D (Chinese sprangletop), rating 0-5 (Chinese sprangletop): 4 (Herbicidal rate of 70% or more and less than 90%); herbicidal effect on E (rice flat sedge), rating 0-5 (rice flat sedge): 4 (Herbicidal rate of 70% or more and less than 90%)
3 | Cc1nn(C)c(=O)c(-c2c(-c3ccc([S+]([O-])CC(F)F)cc3)sc3ccc(F)cc23)c1O (stereo not drawn) [2-264] | 4 (Herbicidal rate of 70% or more and less than 90%) | 3 (Herbicidal rate of 40% or more and less than 70%) | 3 (Herbicidal rate of 40% or more and less than 70%) | 3 (Herbicidal rate of 40% or more and less than 70%) | 3 (Herbicidal rate of 40% or more and less than 70%) | 4 (Herbicidal rate of 70% or more and less than 90%) | 5 (Herbicidal rate of 90% or more (almost completely withered)) | 3 (Herbicidal rate of 40% or more and less than 70%) | 5 (Herbicidal rate of 90% or more (almost completely withered)) | 
4 | Cc1nn(C)c(=O)c(-c2c(-c3ccc(C[S+](C)[O-])cc3)sc3ccc(F)cc23)c1O (stereo not drawn) [2-332] | 0 (Herbicidal rate of 5% or less (almost no effect)) | 3 (Herbicidal rate of 40% or more and less than 70%) | 0 (Herbicidal rate of 5% or less (almost no effect)) | 0 (Herbicidal rate of 5% or less (almost no effect)) | 0 (Herbicidal rate of 5% or less (almost no effect)) | 2 (Herbicidal rate of 20% or more and less than 40%) | 5 (Herbicidal rate of 90% or more (almost completely withered)) | 3 (Herbicidal rate of 40% or more and less than 70%) | 3 (Herbicidal rate of 40% or more and less than 70%) | 
5 | CCCC(=O)Oc1c(C)nn(C)c(=O)c1-c1c(-c2ccc(OC)c(Cl)c2)sc2ccc(F)cc12 [2-371] | 3 (Herbicidal rate of 40% or more and less than 70%) | 0 (Herbicidal rate of 5% or less (almost no effect)) | 3 (Herbicidal rate of 40% or more and less than 70%) | 4 (Herbicidal rate of 70% or more and less than 90%) | 4 (Herbicidal rate of 70% or more and less than 90%) | 3 (Herbicidal rate of 40% or more and less than 70%) | 4 (Herbicidal rate of 70% or more and less than 90%) | 4 (Herbicidal rate of 70% or more and less than 90%) | 4 (Herbicidal rate of 70% or more and less than 90%) | 
6 | CCCOc1ccc(-c2oc3ccc(C)cc3c2-c2c(OC(=O)CCC)c(C)nn(C)c2=O)cc1 [9-050] |  |  |  |  |  |  |  |  |  | Herbicidal effect on H (barnyard grass), foliage application (barnyard grass; [7]): 4 (Herbicidal rate of 70% or more and less than 90%); Herbicidal effect, B: Japanese bulrush (Japanese bulrush [1]; [7]): 5 (Herbicidal rate of 90% or more (almost completely withered)); herbicidal effect grade, A: late watergrass (late watergrass [2]; [7]): 3 (Herbicidal rate of 40% or more and less than 70%); herbicidal effect grade, B: Japanese bulrush (Japanese bulrush [3]; [7]): 3 (Herbicidal rate of 40% or more and less than 70%); Herbicidal effect, C: oval-leafed pondweed (oval-leafed pondweed [4]; [7]): 5 (Herbicidal rate of 90% or more (almost completely withered)); Herbicidal effect on D (Chinese sprangletop), foliage application (Chinese sprangletop; [7]): 3 (Herbicidal rate of 40% or more and less than 70%); Herbicidal effect on E (rice flat sedge), foliage application (rice flat sedge; [7]): 5 (Herbicidal rate of 90% or more (almost completely withered)); herbicidal effect grade, C: oval-leafed pondweed (oval-leafed pondweed [5]; [7]): 5 (Herbicidal rate of 90% or more (almost completely withered)); Herbicidal effect, A: late watergrass (late watergrass [6]; [7]): 5 (Herbicidal rate of 90% or more (almost completely withered))
7 | CCCC(=O)Oc1c(C)nn(C)c(=O)c1-c1c(-c2ccc(OCC(C)C)cc2)oc2ccc(C)cc12 [9-052] |  |  |  |  |  |  |  |  |  | Herbicidal effect on H (barnyard grass), foliage application (barnyard grass; [7]): 5 (Herbicidal rate of 90% or more (almost completely withered)); Herbicidal effect, B: Japanese bulrush (Japanese bulrush [1]; [7]): 5 (Herbicidal rate of 90% or more (almost completely withered)); herbicidal effect grade, A: late watergrass (late watergrass [2]; [7]): 3 (Herbicidal rate of 40% or more and less than 70%); herbicidal effect grade, B: Japanese bulrush (Japanese bulrush [3]; [7]): 3 (Herbicidal rate of 40% or more and less than 70%); Herbicidal effect, C: oval-leafed pondweed (oval-leafed pondweed [4]; [7]): 4 (Herbicidal rate of 70% or more and less than 90%); Herbicidal effect on D (Chinese sprangletop), foliage application (Chinese sprangletop; [7]): 0 (Herbicidal rate of 5% or less (almost no effect)); Herbicidal effect on E (rice flat sedge), foliage application (rice flat sedge; [7]): 4 (Herbicidal rate of 70% or more and less than 90%); herbicidal effect grade, C: oval-leafed pondweed (oval-leafed pondweed [5]; [7]): 4 (Herbicidal rate of 70% or more and less than 90%); Herbicidal effect, A: late watergrass (late watergrass [6]; [7]): 5 (Herbicidal rate of 90% or more (almost completely withered))
8 | CCCC(=O)Oc1c(C)nn(C)c(=O)c1-c1c(-c2ccc(SC)cc2)oc2ccc(C)cc12 [9-056] |  |  |  |  |  |  |  |  |  | Herbicidal effect on H (barnyard grass), foliage application (barnyard grass; [8]): 5 (Herbicidal rate of 90% or more (almost completely withered)); Herbicidal effect, B: Japanese bulrush (Japanese bulrush [1]; [8]): 4 (Herbicidal rate of 70% or more and less than 90%); herbicidal effect grade, A: late watergrass (late watergrass [2]; [8]): 3 (Herbicidal rate of 40% or more and less than 70%); herbicidal effect grade, B: Japanese bulrush (Japanese bulrush [3]; [8]): 3 (Herbicidal rate of 40% or more and less than 70%); Herbicidal effect, C: oval-leafed pondweed (oval-leafed pondweed [4]; [8]): 4 (Herbicidal rate of 70% or more and less than 90%); Herbicidal effect on D (Chinese sprangletop), foliage application (Chinese sprangletop; [8]): 3 (Herbicidal rate of 40% or more and less than 70%); Herbicidal effect on E (rice flat sedge), foliage application (rice flat sedge; [8]): 4 (Herbicidal rate of 70% or more and less than 90%); herbicidal effect grade, C: oval-leafed pondweed (oval-leafed pondweed [5]; [8]): 4 (Herbicidal rate of 70% or more and less than 90%); Herbicidal effect, A: late watergrass (late watergrass [6]; [8]): 5 (Herbicidal rate of 90% or more (almost completely withered))
